Experimental data as given in patent publication US12473295B2, “Substituted straight chain spiro derivatives” (Janssen Pharmaceutica NV, priority 2019, dated 2025).
Where a name gives a salt, the structure may show the parent alone.

Biological target: menin/MLL (terbium chelate-labeled menin, FITC-MBM1 peptide) (Homo sapiens (Human), UniProt O00255)
Assay: Menin/MLL homogenous time-resolved fluorescence (HTRF) assay;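 note: IC50 from percent inhibition of HTRF signal, normalized between wells without competitor and wells with a saturating competitor that displaces FITC-MBM1 from His-tagged menin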
Format: binding
Settings: HTRF-30 min incubation IC50, 30 min incubation

Sequence of menin/MLL (terbium chelate-labeled menin, FITC-MBM1 peptide) (O00255 other isoform, or with tags, fused parts or gaps): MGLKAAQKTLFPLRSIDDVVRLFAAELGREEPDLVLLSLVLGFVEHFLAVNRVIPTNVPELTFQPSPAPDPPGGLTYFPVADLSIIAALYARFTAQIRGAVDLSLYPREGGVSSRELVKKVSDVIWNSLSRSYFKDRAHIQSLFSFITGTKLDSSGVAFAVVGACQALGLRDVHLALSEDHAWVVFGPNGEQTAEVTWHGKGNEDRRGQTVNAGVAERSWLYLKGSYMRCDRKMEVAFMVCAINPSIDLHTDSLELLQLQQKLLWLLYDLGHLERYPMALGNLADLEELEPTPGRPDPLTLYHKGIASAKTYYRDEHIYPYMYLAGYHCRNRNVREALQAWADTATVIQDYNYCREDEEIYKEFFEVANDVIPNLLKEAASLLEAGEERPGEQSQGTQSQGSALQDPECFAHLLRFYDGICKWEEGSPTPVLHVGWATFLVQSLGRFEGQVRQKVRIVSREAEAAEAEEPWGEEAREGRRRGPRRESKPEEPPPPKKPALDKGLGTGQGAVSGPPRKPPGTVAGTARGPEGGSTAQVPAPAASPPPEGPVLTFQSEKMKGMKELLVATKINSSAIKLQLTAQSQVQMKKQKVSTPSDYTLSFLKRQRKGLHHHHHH

Q: Which IC50 does the source give for COCCNCCC[C@@H](C(C)C)N1CC2(CCN(c3ncnnc3Oc3ccc(F)cc3C(=O)N(C(C)C)C(C)C)C2)C1 (single isomer, unassigned) [Compound 100, (*S)-5-fluoro-N,N-isopropyl-2-((5-(2-(6-((2-methoxyethyl)amino)-2-methylhexan-3-yl)-2,6-diazaspiro[3.4]octan-6-yl)-1,2,4-triazin-6-yl)oxy)benzamide oxalate] here?
A: The IC50 was 2.05 nM.

Q: For CCN(C)C[C@@H](O)C[C@@H](C(C)C)N1CC2(CCN(c3ncnnc3Oc3ccc(F)cc3C(=O)N(CC)C(C)C)C2)C1 (single isomer, unassigned) [Compound 343, N-ethyl-2-((5-(2-((3*S,5S)-6-(ethyl(methyl)amino)-5-hydroxy-2-methylhexan-3-yl)-2,6-diazaspiro[3.4]octan-6-yl)-1,2,4-triazin-6-yl)oxy)-5-fluoro-N-isopropylbenzamide fumarate], which IC50 is on record?
A: The IC50 was ~3.93 nM.

Q: Which IC50 does the source give for CCCN(C)C[C@@H](O)C[C@@H](C(C)C)N1CC2(CCN(c3ncnnc3Oc3ccc(F)cc3C(=O)N(CC)C(C)C)C2)C1 (single isomer, unassigned) [Compound 387, N-ethyl-5-fluoro-2-((5-(2-((3*S,5*S)-5-hydroxy-2-methyl-6-(methyl(propyl)amino)hexan-3-yl)-2,6-diazaspiro[3.4]octan-6-yl)-1,2,4-triazin-6-yl)oxy)-N-isopropylbenzamide fumarate] here?
A: The IC50 was 9.52 nM.

Q: With CCN(C(=O)c1cc(F)ccc1Oc1nncnc1N1CCC2(C1)CN([C@@H](C[C@@H](O)CN(C)CCOC)C(C)C)C2)C(C)C (single isomer, unassigned) [Compound 357, N-ethyl-5-fluoro-2-((5-(2-((3*S,5R)-5-hydroxy-6-((2-methoxyethyl)(methyl)amino)-2-methylhexan-3-yl)-2,6-diazaspiro[3.4]octan-6-yl)-1,2,4-triazin-6-yl)oxy)-N-isopropylbenzamide fumarate] as the compound, how does the IC50 read?
A: The IC50 was 7.77 nM.

Q: For COCCN(C)CCC[C@@H](C(C)C)N1CC2(CCN(c3ccnnc3Oc3ccc(F)cc3C(=O)N(C(C)C)C(C)C)C2)C1 (single isomer, unassigned) [Compound 89, (*S)-5-fluoro-N,N-isopropyl-2-((4-(2-(6-((2-methoxyethyl)(methyl)amino)-methylhexan-3-yl)-2,6-diazaspiro[3.4]octan-6-yl)pyridazin-3-yl)oxy)benzamide oxalate], which IC50 is on record?
A: The IC50 was 3.79 nM.

Q: With CCN(C)C[C@@H](O)C[C@@H](C(C)C)N1CC2(CCN(c3ncnnc3Oc3ccc(F)cc3C(=O)N(C(C)C)C(C)C)C2)C1 (single isomer, unassigned) [Compound 392, 2-((5-(2-((3*S,5*S)-6-(ethyl(methyl)amino)-5-hydroxy-2-methylhexan-3-yl)-2,6-diazaspiro[3.4]octan-6-yl)-1,2,4-triazin-6-yl)oxy)-5-fluoro-N,N-diisopropylbenzamide fumarate] as the compound, how does the IC50 read?
A: Its IC50 is 10.3 nM.

Q: For CCN(C)C[C@@H](C[C@@H](C(C)C)N1CC2(CCN(c3ncnnc3Oc3ccc(F)cc3C(=O)N(CC)C(C)C)C2)C1)OC (single isomer, unassigned) [Compound 380, N-ethyl-2-((5-(2-((3*S,5*R)-6-(ethyl(methyl)amino)-5-methoxy-2-methylhexan-3-yl)-2,6-diazaspiro[3.4]octan-6-yl)-1,2,4-triazin-6-yl)oxy)-5-fluoro-N-isopropylbenzamide], which IC50 is on record?
A: Its IC50 is 40.5 nM.

Q: With CCN(C(=O)c1cc(F)ccc1Oc1nnc(OC)nc1N1CCC2(C1)CN([C@H](CCCN(C)CCOC)C(C)C)C2)C(C)C [Compound 416, (R)-N-ethyl-5-fluoro-N-isopropyl-2-((3-methoxy-5-(2-(6-((2-methoxyethyl)(methyl)amino)-2-methylhexan-3-yl)-2,6-diazaspiro[3.4]octan-6-yl)-1,2,4-triazin-6-yl)oxy)benzamide formate] as the compound, how does the IC50 read?
A: The IC50 was ~0.035 nM.

Q: With CCN(C(=O)c1cc(F)ccc1Oc1nncnc1N1CCC2(C1)CN([C@@H](CCCCN(C)C)C(C)C)C2)C(C)C (single isomer, unassigned) [Compound 212] as the compound, how does the IC50 read?
A: The IC50 was 9.45 nM.

Q: Which IC50 does the source give for CCN(C(=O)c1cc(F)ccc1Oc1nncnc1N1CCC2(C1)CN([C@@H](C[C@H](O)CN(C)C(C)C)C(C)C)C2)C(C)C (single isomer, unassigned) [Compound 324, N-ethyl-5-fluoro-2-((5-(2-((3*S,5*S)-5-hydroxy-6-(isopropyl(methyl)amino)-2-methylhexan-3-yl)-2,6-diazaspiro[3.4]octan-6-yl)-1,2,4-triazin-6-yl)oxy)-N-isopropylbenzamide fumarate] here?
A: Its IC50 is 18.4 nM.

Q: For CCN(C)C[C@H](C[C@@H](C(C)C)N1CC2(CCN(c3ncnnc3Oc3ccc(F)cc3C(=O)N(CC)C(C)C)C2)C1)OC (single isomer, unassigned) [Compound 379, N-ethyl-2-((5-(2-((3*S,5*S)-6-(ethyl(methyl)amino)-5-methoxy-2-methylhexan-3-yl)-2,6-diazaspiro[3.4]octan-6-yl)-1,2,4-triazin-6-yl)oxy)-5-fluoro-N-isopropylbenzamide], which IC50 is on record?
A: The IC50 was 14.2 nM.

Q: With CCN(C(=O)c1cc(F)ccc1Oc1nncnc1N1CCC2(C1)CN([C@@H](C[C@@H](O)CN(C)C(C)C)C(C)C)C2)C(C)C (single isomer, unassigned) [Compound 326, N-ethyl-5-fluoro-2-((5-(2-((3*S,5*R)-5-hydroxy-6-(isopropyl(methyl)amino)-2-methylhexan-3-yl)-2,6-diazaspiro[3.4]octan-6-yl)-1,2,4-triazin-6-yl)oxy)-N-isopropylbenzamide fumarate] as the compound, how does the IC50 read?
A: The IC50 was 18.5 nM.

Q: How did the IC50 turn out when CCN(C(=O)c1cc(F)ccc1Oc1nnc(OC)nc1N1CCC2(C1)CN([C@H](CCCN)C(C)C)C2)C(C)C [Compound 407, (R)-2-((5-(2-(6-amino-2-methylhexan-3-yl)-2,6-diazaspiro[3.4]octan-6-yl)-3-methoxy-1,2,4-triazin-6-yl)oxy)-N-ethyl-5-fluoro-N-isopropylbenzamide formate] was run?
A: Its IC50 is 0.086 nM.

Q: How did the IC50 turn out when CCN(CC)C[C@@H](O)C[C@H](C(C)C)N1CC2(CCN(c3ncnnc3Oc3ccc(F)cc3C(=O)N(CC)C(C)C)C2)C1 (single isomer, unassigned) [Compound 337, 2-(5-(2-((3*R,5*S)-6-(diethylamino)-5-hydroxy-2-methylhexan-3-yl)-2,6-diazaspiro[3.4]octan-6-yl)-1,2,4-triazin-6-yl)oxy)-N-ethyl-5-fluoro-N-isopropylbenzamide fumarate] was run?
A: Its IC50 is 4.57 nM.

Q: For CCN(C(=O)c1cc(F)ccc1Oc1nncnc1N1CCC2(C1)CN([C@@H](C[C@H](C)CN(C)CCOC)C(C)C)C2)C(C)C (single isomer, unassigned) [Compound 243, N-ethyl-5-fluoro-N-isopropyl-2-((5-(2-((3*S,5*S)-6-((2-methoxyethyl)(methyl)amino)-2,5-dimethylhexan-3-yl)-2,6-diazaspiro[3.4]octan-6-yl)-1,2,4-triazin-6-yl)oxy)benzamide fumarate], which IC50 is on record?
A: The IC50 was 7.39 nM.

Q: How did the IC50 turn out when COCCN(C)CCC[C@H](C(C)C)N1CC2(CCN(c3ncnnc3Oc3ccc(F)cc3C(=O)N(C)C(C)C)C2)C1 [Compound 415, (R)-5-fluoro-N-isopropyl-2-((5-(2-(6-((2-methoxyethyl)(methyl)amino)-2-methylhexan-3-yl)-2,6-diazaspiro[3.4]octan-6-yl)-1,2,4-triazin-6-yl)oxy)-N-methylbenzamide] was run?
A: The IC50 was 0.084 nM.

Q: For CCN(CC)C[C@@H](O)C[C@@H](C(C)C)N1CC2(CCN(c3ncnnc3Oc3ccc(F)cc3C(=O)N(CC)C(C)C)C2)C1 (single isomer, unassigned) [Compound 335, 2-((5-(2-((3*S,5*S)-6-diethylamino)-5-hydroxy-2-methylhexan-3-yl)-2,6-diazaspiro[3.4]octan-6-yl)-1,2,4-triazin-6-yl)oxy)-N-ethyl-5-fluoro-N-isopropylbenzamide fumarate], which IC50 is on record?
A: Its IC50 is 5.49 nM.

Q: For CCN(C(=O)c1cc(F)ccc1Oc1nncnc1N1CCC2(C1)CN([C@@H](C[C@H](CN(C)C)OC)C(C)C)C2)C(C)C (single isomer, unassigned) [Compound 378, 2-((5-(2-((3*S,5*R)-6-(dimethylamino)-5-methoxy-2-methylhexan-3-yl)-2,6-diazaspiro[3.4]octan-6-yl)-1,2,4-triazin-6-yl)oxy)-N-ethyl-5-fluoro-N-isopropylbenzamide fumarate], which IC50 is on record?
A: The IC50 was 27.3 nM.

Q: With CCN(C(=O)c1cc(F)ccc1Oc1nncnc1N1CCC2(C1)CN([C@@H](C[C@H](O)CN(C)CCOC)C(C)C)C2)C(C)C (single isomer, unassigned) [Compound 353, N-ethyl-5-fluoro-2-((5-(2-((3*S,5S)-5-hydroxy-6-((2-methoxyethyl)(methyl)amino)-2-methylhexan-3-yl)-2,6-diazaspiro[3.4]octan-6-yl)-1,2,4-triazin-6-yl)oxy)-N-isopropylbenzamide fumarate] as the compound, how does the IC50 read?
A: Its IC50 is 4.19 nM.

Q: For CCN(C(=O)c1cc(F)ccc1Oc1nncnc1N1CCC2(C1)CN([C@@H](C[C@@H](CN(C)C)OC)C(C)C)C2)C(C)C (single isomer, unassigned) [Compound 377, 2-((5-(2-((3*S,5*R)-6-(dimethylamino)-5-methoxy-2-methylhexan-3-yl)-2,6-diazaspiro[3.4]octan-6-yl)-1,2,4-triazin-6-yl)oxy)-N-ethyl-5-fluoro-N-isopropylbenzamide fumarate], which IC50 is on record?
A: Its IC50 is 15.4 nM.

Q: Which IC50 does the source give for CCN(C(=O)c1cc(F)ccc1Oc1nncnc1N1CCC2(C1)CN([C@H](C[C@@H](C)CN(C)CCOC)C(C)C)C2)C(C)C (single isomer, unassigned) [Compound 240, N-ethyl-5-fluoro-N-isopropyl-2-((5-(2-((3*R,5*R)-6-((2-methoxyethyl)(methyl)amino)-2,5-dimethylhexan-3-yl)-2,6-diazaspiro[3.4]octan-6-yl)-1,2,4-triazin-6-yl)oxy)benzamide fumarate] here?
A: Its IC50 is 12.3 nM.

Q: With CC(C)[C@H](C[C@@H](O)CN(C)C)N1CC2(CCN(c3ncnnc3Oc3ccc(F)cc3C(=O)N(C(C)C)C(C)C)C2)C1 (single isomer, unassigned) [Compound 370, 2-((5-(2-((3*S,5*R)-6-(dimethylamino)-5-hydroxy-2-methylhexan-3-yl)-2,6-diazaspiro[3.4]octan-6-yl)-1,2,4-triazin-6-yl)oxy)-5-fluoro-N,N-diisopropylbenzamide fumarate] as the compound, how does the IC50 read?
A: Its IC50 is 5.42 nM.

Test system: MEIS1 mRNA
Assay: MEIS1 mRNA expression assay (Quantigene Singleplex) in MOLM14 cells;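 note: MEIS1 transcript levels read by probe hybridization and normalized to RPL28 mRNA, with IC50 fitted to fold changes across a rising compound concentration series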
Format: cell-based, human
Settings: Homo sapiens, MOLM-14, 48 h, 48 hours incubation

Q: With CCN(C)C[C@@H](O)C[C@@H](C(C)C)N1CC2(CCN(c3ncnnc3Oc3ccc(F)cc3C(=O)N(CC)C(C)C)C2)C1 (single isomer, unassigned) [Compound 343, N-ethyl-2-((5-(2-((3*S,5S)-6-(ethyl(methyl)amino)-5-hydroxy-2-methylhexan-3-yl)-2,6-diazaspiro[3.4]octan-6-yl)-1,2,4-triazin-6-yl)oxy)-5-fluoro-N-isopropylbenzamide fumarate] as the compound, how does the IC50 read?
A: Its IC50 is 530 nM.

Q: For CCN(C(=O)c1cc(F)ccc1Oc1nnc(OC)nc1N1CCC2(C1)CN([C@H](CCCN(C)CCOC)C(C)C)C2)C(C)C [Compound 416, (R)-N-ethyl-5-fluoro-N-isopropyl-2-((3-methoxy-5-(2-(6-((2-methoxyethyl)(methyl)amino)-2-methylhexan-3-yl)-2,6-diazaspiro[3.4]octan-6-yl)-1,2,4-triazin-6-yl)oxy)benzamide formate], which IC50 is on record?
A: Its IC50 is 49 nM.

Q: How did the IC50 turn out when CCN(C(=O)c1cc(F)ccc1Oc1nnc(OC)nc1N1CCC2(C1)CN([C@H](CCCN)C(C)C)C2)C(C)C [Compound 407, (R)-2-((5-(2-(6-amino-2-methylhexan-3-yl)-2,6-diazaspiro[3.4]octan-6-yl)-3-methoxy-1,2,4-triazin-6-yl)oxy)-N-ethyl-5-fluoro-N-isopropylbenzamide formate] was run?
A: The IC50 was 380 nM.

Q: How did the IC50 turn out when CCN(CC)C[C@@H](O)C[C@H](C(C)C)N1CC2(CCN(c3ncnnc3Oc3ccc(F)cc3C(=O)N(CC)C(C)C)C2)C1 (single isomer, unassigned) [Compound 337, 2-(5-(2-((3*R,5*S)-6-(diethylamino)-5-hydroxy-2-methylhexan-3-yl)-2,6-diazaspiro[3.4]octan-6-yl)-1,2,4-triazin-6-yl)oxy)-N-ethyl-5-fluoro-N-isopropylbenzamide fumarate] was run?
A: The IC50 was > 1000 nM.
